Here are results for three compounds from publication PMC12519992 (2025).

For assay [1], the system named is dsDNA (dual-labeled) (DNA, duplex) CAATCGGATCGAATTCGATCCGATTG
As to the kind of experiment: FRET melting. The conditions noted are these: K+ 60 mM; 60 mM K-cacodylate (table note: Tris-HCl/KCl), pH 7.4; 1 µM compound.

Assay [2] deals with BCL2 (DNA, G4) GGGCGCGGGAGGAATTGGGCGGG
The assay is described as follows: fluorescence titration of ligand, Hill fit. Particulars: K+; 100 mM Tris-KCl, pH 7.4, 25 °C; excitation 300 nm.

The subject of assay [3] is c-KIT1 (DNA, G4) GGGAGGGCGCTGGGAGGGAGGG
As to the kind of experiment: ITC. The conditions noted are these: K+ 100 mM; 100 mM Tris, 100 mM KCl, pH 7.4; main text prints ~3.3 µM.

The subject of assay [4] is dsDNA (DNA, duplex) CAATCGGATCGAATTCGATCCGATTG
As to the kind of experiment: fluorescence titration of ligand, Hill fit. The conditions noted are these: K+; 100 mM Tris-KCl, pH 7.4, 25 °C; main text: no substantial spectral change with dsDNA, ITC negligible.

Assay [5] has as its system KRAS (DNA, G4) AGGGCGGTGTGGGAAGAGGGAAGAGGGGGAGG
As to the kind of experiment: ITC. Particulars: K+ 100 mM; 100 mM Tris, 100 mM KCl, pH 7.4; 5 µM DNA, 50 µM ligand.

Assay [6] concerns c-KIT2 (DNA, G4) GGGCGGGCGCGAGGGAGGGG
As to the kind of experiment: ITC. Particulars: K+ 100 mM; 100 mM Tris, 100 mM KCl, pH 7.4; main text prints ~2.6 µM.

The test system of assay [7] is BCL2 (DNA, G4) GGGCGCGGGAGGAATTGGGCGGG
As to the kind of experiment: ITC. The conditions noted are these: K+ 100 mM; 100 mM Tris, 100 mM KCl, pH 7.4; 5 µM DNA, 50 µM ligand.

Assay [8] relates to c-MYC27 (DNA, G4) TGAGGGTGGGTAGGGTGGGTAA
The assay is described as follows: ITC. Particulars: K+ 100 mM; 100 mM Tris, 100 mM KCl, pH 7.4; 5 µM DNA, 50 µM ligand.

Assay [9] concerns c-KIT1 (DNA, G4) GGGAGGGCGCTGGGAGGGAGGG
The assay is described as follows: fluorescence titration of ligand, Hill fit. Particulars: K+; 100 mM Tris-KCl, pH 7.4, 25 °C; excitation 300 nm.

Assay [10] relates to c-MYC27 (DNA, G4) TGAGGGTGGGTAGGGTGGGTAA
The assay is described as follows: fluorescence titration of ligand, Hill fit. Particulars: K+; 100 mM Tris-KCl, pH 7.4, 25 °C; excitation 300 nm.

Assay [11] concerns VEGF (DNA, G4) CGGGGCGGGCCGGGGGCGGGGT
The assay is described as follows: ITC. Particulars: K+ 100 mM; 100 mM Tris, 100 mM KCl, pH 7.4; 5 µM DNA, 50 µM ligand.

The subject of assay [12] is c-KIT2 (DNA, G4) GGGCGGGCGCGAGGGAGGGG
The assay is described as follows: fluorescence titration of ligand, Hill fit. The conditions noted are these: K+; 100 mM Tris-KCl, pH 7.4, 25 °C; excitation 300 nm.

The test system of assay [13] is KRAS (DNA, G4) AGGGCGGTGTGGGAAGAGGGAAGAGGGGGAGG
The assay is described as follows: fluorescence titration of ligand, Hill fit. The conditions noted are these: K+; 100 mM Tris-KCl, pH 7.4, 25 °C; excitation 300 nm.

As usually defined, the ΔTm is the shift of the melting midpoint relative to a reference. Turning to `C[n+]1cc(NC(=O)c2ccc3ccc4ccc(C(=O)Nc5cc6ccccc6[n+](C)c5)nc4c3n2)cc2ccccc21`, in assay [1], the shift in melting temperature (ΔTm) is 0.01 °C.
The Kd is the constant that tells how readily two partners part at equilibrium. As for `Nc1nc(C(=O)Nc2ccc(-n3cc(CNC(=O)c4csc(NC(=O)c5csc(N)n5)n4)nn3)cc2)cs1`, the Kd in assay [2] amounted to 1.8 µM.
What is called KD is the equilibrium constant for the complex coming apart. Turning to `Nc1nc(C(=O)Nc2nc(C(=O)NCc3cn(-c4ccc(NC(=O)[C@@H]5CCCN5)cc4)nn3)cs2)cs1`, the dissociation constant KD was determined as 2.2 ± 1 µM in assay [3]; 2.2 µM in [4]; 1.5 µM in assay [2]; 0.53 ± 0.25 µM in [5]; 3.7 ± 0.3 µM in assay [6]; 3 ± 0.1 µM in assay [7]. Further, the KD stood at 2.28 ± 0.74 µM in [8]; 2 µM in [9]; 2.5 µM in [10]; 17.7 ± 4 µM in assay [11]; 1.5 µM in assay [12]. In assay [1], the ΔTm came out at 0.07 °C. Further, the Kd in [13] was found to be 0.8 µM.
